Results reported in patent US10966944B2, “[2.2.2] bicyclic derivatives and methods of use” (ASE PHARMACEUTICALS, LLC, priority 2008, dated 2021).

What was measured:
adult epilepsy patients [1] = test: Blood chemistry before and after treatment (Example 2, safety); type: in vivo, human
Description: (§1) At the start of sodium bicyclo-[2.2.2]-octane-2-carboxylate protocol, all patients began receiving sodium bicyclo-[2.2.2]-octane-2-carboxylate at 100 mg four times a day. If the clinical effect was absent by day 14, the dose of Sodium bicyclo-[2.2.2]-octane-2-carboxylate was increased to 150 mg. Patients with various forms of epilepsy were selected for the study (Table 2).
(§2) Main study parameters included efficiency criteria such as the number and severity of seizures, and safety criteria such as the clinical and laboratory tests. The complete examination included: • 1) Neurological exams. • 2) Computer-assisted tomography (CAT scan). • 3) MRI of the brain. • 4) General blood work: baseline before Sodium bicyclo-[2.2.2]-octane-2-carboxylate treatment, 2 weeks and 1.5 months after the beginning of the treatment. • 5) General urine analysis. • 6) Blood biochemistry. • 7) ECG. • 8) EEG and pharmaco-EEG. Physical exams and testing results were registered by a research physician in the MRs and were analyzed by statistical methods.
(§3) The effective therapeutic dose was determined as 400 mg per day in 60% of the patients, and 600 mg per day in the remaining 40%. Safety aspects of sodium bicyclo-[2.2.2]-octane-2-carboxylate were evaluated during the treatment and after the treatment by monitoring the clinical and laboratory parameters.
(§4) Before-before Sodium bicyclo-[2.2.2]-octane-2-carboxylate treatment After-after Sodium bicyclo-[2.2.2]-octane-2-carboxylate treatment. No statistically significant differences in any other parameters before and after Sodium bicyclo-[2.2.2]-octane-2-carboxylate treatment were detected.

adult epilepsy patients [2] = test: General blood work before and after treatment (Example 2, safety); type: in vivo, human
Description: as §1, §2, §3, §4

epilepsy patients = test: Clinical trials in epilepsy patients and volunteers (Example 1); type: in vivo, human
Description: Clinical trials involving administration of sodium bicyclo-[2.2.2]-octane-2-carboxylate were performed on 30 epilepsy patients and 20 volunteers in two clinics in Moscow. […] Classification of the patients was done in accordance with International Classification of Epilepsy and Epileptic Syndromes (ILAE, 1989). Some of the subjects also suffered from addictive disorders (alcoholism, drug addiction). In 73% of trial subjects, sodium bicyclo-[2.2.2]-octane-2-carboxylate administration reduced the frequency, intensity, and duration of epileptic seizures. […] It normalized cerebral blood circulation and increased the sympathetic tonus of the patients. […] The following were used to assess trial subjects: • Visual checkup • EEG • CT • MRT • Clinical blood and urine tests • general blood test • biochemical blood test • general urine tests • Inspection and checkup of organs and systems: • respiratory system • cardiovascular system • alimentary system • urinary system • Neurological status • Concurrent disease status.

adult epilepsy patients [3] = test: Randomized open-controlled study, add-on to base therapy: frequency and severity of epileptic seizures (Example 2); type: in vivo, human
Description: The study of sodium bicyclo-[2.2.2]-octane-2-carboxylate as an addition to a base therapy was conducted in the group of adult epilepsy patients. Sodium bicyclo-[2.2.2]-octane-2-carboxylate was administered during 10 weeks. Thirty patients in both hospitals (twenty-six males and four females) were included in the studies.
Base therapy was administered in accordance with recommendations by the International Anti-epileptic League (1989). During the study, the patients continued to receive pathogenetic treatment. Medication names, doses and the duration of any treatment were registered in patients' medical records (MR). The patients continued receiving their standard prescribed medications and were not switched to a different drug at any time during the study.
During the introductory period of 7 to 10 days, the patients were examined; base therapy scheme was being finalized and was described in a standard protocol. In accordance with the protocol, the patients were screened for inclusion/exclusion factors. Only those patients who signed an informed consent and who satisfied the inclusion criteria were included in the study. The frequency of epileptic seizures in patients receiving pre-sodium bicyclo-[2.2.2]-octane-2-carboxylate base therapy varied from 1 to 16 times a month.
as §1, §2
To evaluate treatment efficacy, the frequency and severity of epileptic seizures were monitored. […] In the majority of patients suffering from partial epilepsy, seizures became less severe and occurred less frequently. The patients reported feeling better, with improvement of mood, work efficiency, and sleep quality. […]

adult epilepsy patients [4] = test: ECG recording during the study (Example 2); type: in vivo, human; details: patients with extrasystolia and tachycardia
Description: as §2, with “methods. ECGs were recorded before the beginning of the treatment, during the course of the study (on a regular basis), and immediately after the study had been completed. […] In the patients with extrasystolia and tachycardia, extrasystolia was not observed by the end of the first treatment month, while the heart rate decreased on average from 88/min to 80/min. In the patients with bradycardia, sinus rhythm dropped further.” for “methods.”

adult epilepsy patients [5] = test: EEG parameters before and after treatment (Example 2); type: in vivo, human; details: averaged, after treatment (before treatment: 197.7)
Description: as §2

adult epilepsy patients [6] = test: Dysphoria and general condition in the study patients (Example 2); type: in vivo, human
Description: During each scheduled visit and at the completion of the study, complete physical examination of each patient was performed. Physical exams included patients' general condition, examinations of the skin, ENT, lungs, heart, stomach, lymph nodes, central nervous system, etc. Valid data obtained before beginning of Sodium bicyclo-[2.2.2]-octane-2-carboxylate treatment was entered in appropriate sections of MRs. The data collected during the treatment (including the observed side effects) was entered in the Brief Description sections of the MRs. […] This effect correlated with disappearance of alcohol addiction.

[7] = average, after treatment (before: 4.75)
[8] = deviation after vs before treatment

O=C([O-])C1CC2CCC1CC2.[Na+] (centres unmarked) [Sodium bicyclo-[2.2.2]-octane-2-carboxylate]
Glucose, After (adult epilepsy patients [1]; [7]): 4.48 mmol/L | General bilirubin, After (adult epilepsy patients [1]; average, after treatment (before: 14.3)): 11.5 µmol/L | ACT, After (adult epilepsy patients [1]; average, after treatment (before: 45.1)): 24.6 | ALT, After (adult epilepsy patients [1]; average, after treatment (before: 46.2)): 21.5 | Creatinin, after (adult epilepsy patients [1]; average, after treatment (before: 70.5)): 69.4 µmol/L | General Protein, After (adult epilepsy patients [1]; average, after treatment (before: 75.5)): 77.4 g/L | ACT, % dev. (adult epilepsy patients [1]; [8]): 45.4% | ALT, % dev. (adult epilepsy patients [1]; [8]): 53.5% | Creatinin, % dev. (adult epilepsy patients [1]; [8]): 1.6% | General Protein, % dev. (adult epilepsy patients [1]; [8]): 2.5% | General bilirubin, % dev. (adult epilepsy patients [1]; [8]): 19.6% | Glucose, % dev. (adult epilepsy patients [1]; [8]): 5.7% | melting point: 84 to 86 °C | Color Index, After (adult epilepsy patients [2]; average, after treatment (before: 0.895)): 0.928 | Eosinophiles (%), After (adult epilepsy patients [2]; average, after treatment (before: 2.53)): 2.53% | Monocytes (%), After (adult epilepsy patients [2]; average, after treatment (before: 3.0)): 2.8% | Erythrocytes, After (adult epilepsy patients [2]; [7]): 4.79 10^12/L | ESR, After (adult epilepsy patients [2]; average, after treatment (before: 7.3)): 5.2 mm | Leukocytes, After (adult epilepsy patients [2]; average, after treatment (before: 7.9)): 7.47 10^9/L | Lymphocytes (%), After (adult epilepsy patients [2]; average, after treatment (before: 20.9)): 21.1% | Neutrophiles (%), After (adult epilepsy patients [2]; average, after treatment (before: 72.7)): 71.2% | Hemoglobin, After (adult epilepsy patients [2]; average, after treatment (before: 143.4), in g/L (unit assumed)): 140.13 | Platelets, After (adult epilepsy patients [2]; average, after treatment (before: 205.5), in 10^9/L (unit assumed)): 230.3 | Color Index, % dev. (adult epilepsy patients [2]; [8]): 3.7% | ESR, % dev. (adult epilepsy patients [2]; [8]): 28.8% | Eosinophiles, % dev. (adult epilepsy patients [2]; [8]): 0% | Erythrocytes, % dev. (adult epilepsy patients [2]; [8]): 1.48% | Hemoglobin, % dev. (adult epilepsy patients [2]; [8]): 2.3% | Leukocytes, % dev. (adult epilepsy patients [2]; [8]): 5.95% | Lymphocytes, % dev. (adult epilepsy patients [2]; [8]): 0.94% | Monocytes, % dev. (adult epilepsy patients [2]; [8]): 6.7% | Neutrophiles, % dev. (adult epilepsy patients [2]; [8]): 2.06% | Platelets, % dev. (adult epilepsy patients [2]; [8]): 12.07% | effects on the blood counts and blood biochemistry (adult epilepsy patients [2]; during and after the treatment): No unfavorable effects | changes in blood and urine tests (adult epilepsy patients [2]; summary of the study): did not cause any changes | trial subjects with reduced frequency, intensity, and duration of epileptic seizures (epilepsy patients; 30 epilepsy patients and 20 volunteers, two clinics): 73% | side effects in human clinical trials (epilepsy patients; human clinical trials): without significant negative side effects | effective therapeutic dose (adult epilepsy patients [3]; in 60% of the patients): 400 mg per day | effective therapeutic dose (adult epilepsy patients [3]; in the remaining 40% of the patients): 600 mg per day | patients with decrease in seizure frequency (number) (adult epilepsy patients [3]; of 30 patients): 22 patients | patients with decrease in seizure frequency (percent) (adult epilepsy patients [3]; of 30 patients): 73.3% | heart rate (adult epilepsy patients [4]; average, decreased from 88/min): 80 min⁻¹ | extrasystolia (adult epilepsy patients [4]; by the end of the first treatment month): not observed | EEG parameters (focus of pathological activity) (adult epilepsy patients [5]): 151.5 μV | patients' behavior and the functions of major organs and systems (adult epilepsy patients [6]; during 10 weeks of treatment): not negatively affected | cases with effective treatment of dysphoria or dysphoria-like conditions (adult epilepsy patients [6]; of all cases): 93.3% | dysphoria and paroxysmal activity on EEG (adult epilepsy patients [6]; patients who suffered from alcohol addiction in the past, after 1.5 month of treatment): disappeared or decreased
